This note sets out measurements from patent US20070275961A1, “Triazolo ' 1, 5-A ! Pyrimidines and Their Use in Medicine” (VERNALIS (CAMBRIDGE) LIMITED., priority 2003, published 2007).

Read-outs that look alike come from different tables or passages of the source.

Type in all cases: biochemical
Test [1] has as its target CDK2 enzyme, complexed with cyclin A (Homo sapiens, UniProt P24941). The test can be described thus: CDK2 cyclin dependent kinase assay, phosphorylation of synthetic peptide […] (33P-ATP filtration). As to conditions: 0.1 mM ATP.
For another test, the target named is T1, PDK1 enzyme (Homo sapiens, UniProt O15530).
T1 sequence (O15530 1-556): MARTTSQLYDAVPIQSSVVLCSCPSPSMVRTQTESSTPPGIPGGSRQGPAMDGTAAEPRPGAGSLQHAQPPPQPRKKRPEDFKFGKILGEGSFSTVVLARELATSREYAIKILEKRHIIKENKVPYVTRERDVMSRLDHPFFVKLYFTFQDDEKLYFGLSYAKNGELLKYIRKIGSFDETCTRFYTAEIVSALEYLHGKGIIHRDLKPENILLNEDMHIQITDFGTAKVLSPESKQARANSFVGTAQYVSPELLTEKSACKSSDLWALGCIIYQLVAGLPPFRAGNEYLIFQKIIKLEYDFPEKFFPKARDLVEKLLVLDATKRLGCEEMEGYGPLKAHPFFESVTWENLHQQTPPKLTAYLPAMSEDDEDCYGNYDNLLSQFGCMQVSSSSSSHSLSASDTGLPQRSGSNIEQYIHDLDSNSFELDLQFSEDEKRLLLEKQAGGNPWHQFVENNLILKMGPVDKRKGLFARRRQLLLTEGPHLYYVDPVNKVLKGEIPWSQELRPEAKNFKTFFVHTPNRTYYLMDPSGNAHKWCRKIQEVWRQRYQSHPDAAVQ
The test can be described thus: PDK1 3'-phosphoinositide-dependent kinase assay, phosphorylation of synthetic peptide (33P-ATP filtration). Particulars: 0.01 mM ATP, read-out: PDK1 IC50. The essentials:
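Radiometric peptide phosphorylation by PDK1 with inhibitor, 60 min at 30 °C, using 0.01 mM ATP plus 33P-γ-ATP, 0.075 mM peptide, 7.5 mM Mg acetate in Tris-HCl pH 7.5. Phosphoric acid stopped reaction; phosphorylated peptide captured on filter plates and counted by scintillation.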

In another test the target is T2, Chk1 (Homo sapiens, UniProt O14757).
T2 sequence (O14757 1-476): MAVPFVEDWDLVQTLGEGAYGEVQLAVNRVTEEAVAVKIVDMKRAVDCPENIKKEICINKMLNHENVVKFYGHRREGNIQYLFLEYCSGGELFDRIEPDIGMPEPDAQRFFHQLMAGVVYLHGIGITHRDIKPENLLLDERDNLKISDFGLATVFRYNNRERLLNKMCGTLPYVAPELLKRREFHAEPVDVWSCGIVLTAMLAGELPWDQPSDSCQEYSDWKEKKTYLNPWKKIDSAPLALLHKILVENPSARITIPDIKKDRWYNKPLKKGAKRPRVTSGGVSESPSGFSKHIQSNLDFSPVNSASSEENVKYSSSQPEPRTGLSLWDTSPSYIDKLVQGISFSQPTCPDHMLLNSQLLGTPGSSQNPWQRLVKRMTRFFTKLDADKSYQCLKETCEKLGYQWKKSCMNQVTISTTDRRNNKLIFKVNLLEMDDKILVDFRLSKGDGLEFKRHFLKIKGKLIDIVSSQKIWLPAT
The test can be described thus: Chk1 kinase assay, phosphorylation of Chktide (33P-ATP filtration). As to conditions: 0.01 mM ATP, read-out: Chk1 IC50. The essentials: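 GST-Chk1 (11 nM) with inhibitor, 30 μM Chktide peptide, 0.01 mM ATP plus 33P-γ-ATP in 50 mM Hepes pH 7.5 with 0.1 mg/ml BSA, 40 min at 30° C. Stopped with phosphoric acid; phosphorylated peptide captured on filter plates and scintillation-counted.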

Consider `NC(=O)c1ccc(Nc2cc(Cl)nc3ncnn23)cc1` [Example 49], for which the results for the half-maximal inhibitory concentration (IC50) (in test [1] (Table 1); at PDK1 enzyme (Table 1); at Chk1 (Table 1)) were 24.1 µM, more than 200 µM and more than 200 µM, respectively.
For `Clc1cc(NCC2CCNCC2)n2ncnc2n1` [Example 81], the values for the concentration for half-maximal inhibition (IC50) (in test [1] (Table 2); at PDK1 enzyme (Table 2); on Chk1 (Table 2)) were 177 µM, more than 200 µM and more than 200 µM, respectively.
Take `Oc1ccc(Cl)cc1Nc1cc(Cl)nc2ncnn12` [Example 32]: the half-maximal inhibitory concentration (IC50) in test [1] (Table 1) was 31.6 µM; at PDK1 enzyme (Table 1), more than 200 µM; at Chk1 (Table 1), more than 200 µM.
As to `NC(=O)c1ccc(Nc2cc(-c3cccc(OCC4CCCNC4)c3)n3ncnc3n2)cc1` (stereo not drawn) [Example 148], the IC50 in test [1] (Table 4) amounted to 5.38 µM; at PDK1 enzyme (Table 4), 10.4 µM; at Chk1 (Table 4), 17 µM.
As to `CCN(CC)CCNC(=O)c1ccc(Nc2cc(Cl)nc3ncnn23)cc1` [Example 39], the figures for the half-maximal inhibitory concentration (IC50) (in test [1] (Table 1); on PDK1 enzyme (Table 1); on Chk1 (Table 1)) were 42.8 µM, more than 200 µM and more than 200 µM, respectively.
As to `Cc1cccc(-c2cc(Nc3ccc(N4CCOCC4)cc3)nc3ncnn23)c1` [Example 106], the concentration for half-maximal inhibition (IC50) is more than 200 µM in test [1] (Table 3), 23.2 µM at PDK1 enzyme (Table 3) and 63.3 µM on Chk1 (Table 3).
As for `NS(=O)(=O)c1ccc(Nc2cc(N[C@H]3CC[C@H](O)CC3)nc3ncnn23)cc1` [Example 68], the 50% inhibitory concentration (IC50) in test [1] (Table 2) is 7.4 µM; on PDK1 enzyme (Table 2), more than 200 µM; at Chk1 (Table 2), more than 200 µM.
Regarding `CS(=O)(=O)c1ccc(Nc2cc(N3CCC(C(N)=O)CC3)nc3ncnn23)cc1` [Example 89], the IC50 in test [1] (Table 2) is 36 µM; on PDK1 enzyme (Table 2), more than 200 µM; at Chk1 (Table 2) it was more than 200 µM.
In the case of `CC[C@H](CO)Nc1cc(NCc2ccccc2)n2ncnc2n1` [Example 79], the 50% inhibitory concentration (IC50) in test [1] (Table 2) is 5.05 µM; at PDK1 enzyme (Table 2), more than 200 µM; on Chk1 (Table 2) it was more than 200 µM.
Take `O[C@H]1CC[C@H](Nc2cc(Cl)nc3ncnn23)CC1` [Example 43]: the IC50 (in test [1] (Table 1); at PDK1 enzyme (Table 1); on Chk1 (Table 1)) was more than 200 µM each time.
As to `NC(=O)COc1cccc(-c2cc(Nc3ccc(C(N)=O)cc3)nc3ncnn23)c1` [Example 157], the half-maximal inhibitory concentration (IC50) in test [1] (Table 4) stood at 6.56 µM; on PDK1 enzyme (Table 4), 4.82 µM; at Chk1 (Table 4), 6.05 µM.
Turning to `NC(=O)c1ccc(Nc2cc(-c3ccc4ccccc4c3)n3ncnc3n2)cc1` [Example 136], the half-inhibitory concentration (IC50) was more than 200 µM in test [1] (Table 3), 92.9 µM on PDK1 enzyme (Table 3) and 13.7 µM on Chk1 (Table 3).
Consider `CCN(CC)c1cc(NCc2ccc(S(C)(=O)=O)cc2)n2ncnc2n1` [Example 103], for which the half-inhibitory concentration (IC50) in test [1] (Table 2) was 29.8 µM; on PDK1 enzyme (Table 2), more than 200 µM; on Chk1 (Table 2), more than 200 µM.
Consider `NC(=O)c1ccc(Nc2cc(-c3ccccc3)n3ncnc3n2)cc1` [Example 116], for which the results for the half-maximal inhibitory concentration (IC50) (in test [1] (Table 3); at PDK1 enzyme (Table 3); on Chk1 (Table 3)) were 97.5 µM, 5.11 µM and 9.82 µM, respectively.
Turning to `Clc1cc(NCc2ccncc2)n2ncnc2n1` [Example 56], the results for the half-inhibitory concentration (IC50) (in test [1] (Table 1); at PDK1 enzyme (Table 1); on Chk1 (Table 1)) were 43.3 µM, more than 200 µM and more than 200 µM, respectively.
For `CCN(CC)c1cc(Nc2ccc(S(N)(=O)=O)cc2)n2ncnc2n1` [Example 4, 4-(5-Diethylamino-[1,2,4]triazolo[1,5-a]pyrimidine-7-ylamino)-benzenesulfonamide], the IC50 in test [1] (Table 1) was 0.39 µM; on PDK1 enzyme (Table 1) it was more than 200 µM; at Chk1 (Table 1), more than 200 µM.
Take `CN(C)S(=O)(=O)c1ccc(Nc2cc(Cl)nc3ncnn23)cc1` [Example 8]: the IC50 in test [1] (Table 1) was 48.2 µM; on PDK1 enzyme (Table 1), more than 200 µM; at Chk1 (Table 1), more than 200 µM.
Take `CC(C)(C)OC(=O)N1CCC(CNc2cc(Cl)nc3ncnn23)CC1` [Example 76]: the 50% inhibitory concentration (IC50) (in test [1] (Table 2); on PDK1 enzyme (Table 2); at Chk1 (Table 2)) was more than 200 µM each time.
For `CC(C)C(CO)Nc1cc(Nc2ccc(S(N)(=O)=O)cc2)n2ncnc2n1` (stereo not drawn) [Example 31], the 50% inhibitory concentration (IC50) in test [1] (Table 1) is 4.91 µM; on PDK1 enzyme (Table 1), more than 200 µM; at Chk1 (Table 1) it was more than 200 µM.

By IC50 is commonly meant the midpoint of a concentration-inhibition curve.
